The numbers were not newly measured in patent US4146613A, “Oral anti-diabetic drug composition” (THERA Gesellschaft fur Patentverwertung mbH, priority 1976, dated 1979), which cites them from elsewhere.

The data set deals with blood sugar.

With kallikrein, under “after administering for several days, for example after three days”, the “persistence of blood sugar lowering effect” value is given as “the effect would diminish or disappear”. Under “also if applied orally, Frey et al 1932”, the blood sugar lowering result is recorded as “lower slightly the blood sugar”.
